Reference: patent US6573293B2, “Pyrrole substituted 2-indolinone protein kinase inhibitors” (Sugen, Inc., priority 2000, dated 2003)

Legend:
GST-Flk1 = molecular target: T1, GST-Flk1 (Mus musculus, UniProt P35918); assay: GST-FLK-1 bioassay (bio flkGST); type: biochemical
T1 construct: GST-Flk1cd purified from sf9 recombinant baculovirus transformation; host or cells: Sf9 (baculovirus)
Experimental: This assay analyzes the tyrosine kinase activity of GST-Flk1 on poly(glu,tyr) peptides.
Preparation of poly(glu,tyr)(pEY) coated assay plates: Coat 2 ug/well of poly(glu,tyr)(pEY) in 100 ul PBS, hold at room temperature for 2 hours or at 4° C. overnight. Cover plates well to prevent evaporation.
When all reagents have dissolved, adjust the pH to 7.2 with HCl. Bring total volume to 1 L with dH2O.
PBST Buffer: to 1 L of PBS Buffer, add 1.0 ml Tween-20.
Adjust pH to 7.2 with HCl. Add 10 g BSA, stir to dissolve. Bring total volume to 1 L with dH2O. Filter to remove particulate matter.
Adjust total volume to 1 L with PBS buffer, filter to remove particulate matter.
GST-Flk1cd purified from sf9 recombinant baculovirus transformation (SUGEN, Inc.).
Add 10 N NaOH until EDTA dissolves. Adjust pH to 8.0. Adjust total volume to 100 ml with dH2O.
Anti-phosphotyrosine monoclonal antibody conjugated to horseradish peroxidase (PY99 HRP, Santa Cruz Biotech).
2,2′-Azinobis(3-ethylbenzthiazoline-6-sulfonic acid (ABTS, Moss, Cat. No. ABST).
Coat Corning 96-well ELISA plates with 2 μg of polyEY peptide in sterile PBS as described in step 3 of Materials and Reagents.
Remove unbound liquid from wells by inverting plate. Wash once with TBST. Pat the plate on a paper towel to remove excess liquid.
Add 100 μl of 1% BSA in PBS to each well. Incubate, with shaking, for 1 hr. at room temperature.
Soak wells with 50 mM HEPES (pH7.5) (150 μl/well).
Dilute test compound with dH2O/4% DMSO to 4 times the desired final assay concentration in 96-well polypropylene plates.
Add 25 μl diluted test compound to ELISA plate. In control wells, place 25 μl of dH2O/4% DMSO.
Add 25 μl 0.5M EDTA to negative control wells.
Dilute GST-Flk1 to 0.005 μg (5 ng)/well with KDB.
Add 50 μl of diluted enzyme to each well.
Incubate, with shaking, for 15 minutes at room temperature.
Wash 3×with TBST and pat plate on paper towel to remove excess liquid.
Incubate, with shaking, for 90 min. at room temperature.
Add 100 μl of room temperature ABTS solution to each well.
Stop reaction by adding 20 μl of 10% SDS to each well.

PDGFR-β = molecular target: T2, PDGFR-β (Homo sapiens, UniProt P09619); assay: PDGFR bioassay (bio PDGF); type: biochemical
T2 construct: host or cells: NIH 3T3

EGFR [1] = molecular target: T3, EGFR (Homo sapiens, UniProt P00533); assay: cell EGF assay; type: cell-based
T3 construct: A431 cell lysate (SUGEN, Inc.); host or cells: A431
Experimental: Several of the assays described herein are performed in an ELISA (Enzyme-Linked Immunosorbent Sandwich Assay) format (Voller, et al., 1980, “Enzyme-Linked Immunosorbent Assay,” Manual of Clinical Immunology, 2d ed., Rose and Friedman, Am. Soc. Of Microbiology, Washington, D.C., pp. 359-371). The general procedure is as follows: a compound is introduced to cells expressing the test kinase, either naturally or recombinantly, for a selected period of time after which, if the test kinase is a receptor, a ligand known to activate the receptor is added. The cells are lysed and the lysate is transferred to the wells of an ELISA plate previously coated with a specific antibody recognizing the substrate of the enzymatic phosphorylation reaction. Non-substrate components of the cell lysate are washed away and the amount of phosphorylation on the substrate is detected with an antibody specifically recognizing phosphotyrosine compared with control cells that were not contacted with a test compound.

HER-2 kinase = molecular target: T4, HER-2 kinase (Homo sapiens, UniProt P04626); assay: Cellular HER-2 kinase assay; type: cell-based; details: read-out: Her2 Kinase IC50
T4 construct: Use EGFr/HER-2 chimera/3T3-C7 cell line for this assay; It is expressed in mouse NIH 3T3 clone C7 cells; P00533 (Epidermal growth factor receptor)
Experimental: Cellular HER-2 Kinase Assay
This assay is used to measure HER-2 kinase activity in whole cells in an ELISA format.
Fetal Bovine Serum (FBS, GIBCO Catalog #16000-044), heat inactivated in a water bath for 30 min. at 56° C.
Corning 96-well ELISA Plates.
NUNC 96-well V bottom polypropylene plates.
SUMO 1: monoclonal anti-EGFR antibody (SUGEN, Inc.).
Blocking Buffer: 5% Carnation Instant Milk® in PBS.
Suspend powder in 100 uL of 10 mM HCl. Add 100 uL 10 mM NaOH. Add 800 uL PBS and transfer to an Eppendorf tube, store at −20° C. until ready to use.
Na3VO4. […] Adjust pH to 10. Boil in microwave for one minute (solution becomes clear). Cool to room temperature. Adjust pH to 10. Repeat heating/cooling cycle until pH remains at 10.
Rabbit polyclonal antiserum specific for phosphotyrosine (anti-Ptyr antibody, SUGEN, Inc.).
Affinity purified antiserum, goat anti-rabbit IgG antibody, peroxidase conjugate (Biosource Cat #ALI0404).
30% Hydrogen peroxide solution.
Coat Corning 96 well ELISA plates with SUMO1 at 1.0 ug per well in PBS, 100 ul final volume/well. Store overnight at 4° C.
On day of use, remove coating buffer and wash plate 3 times with dH2O and once with TBST buffer. All washes in this assay should be done in this manner, unless otherwise specified.
Add 100 ul of Blocking Buffer to each well. Incubate plate, with shaking, for 30 min. at room temperature. Just prior to use, wash plate.
Use EGFr/HER-2 chimera/3T3-C7 cell line for this assay.
Choose dishes having 80-90% confluence. Collect cells by trypsinization and centrifuge at 1000 rpm at room temperature for 5 min.
Resuspend cells in starve medium and count with trypan blue. Viability above 90% is required. Seed cells in starve medium at a density of 2,500 cells per well, 90 ul per well, in a 96 well microtiter plate. Incubate seeded cells overnight at 37° under 5% CO2.
Start the assay two days after seeding.
Test compounds are dissolved in 4% DMSO. Samples are then further diluted directly on plates with starve-DMEM. Typically, this dilution will be 1:10 or greater.
Incubate under 5% CO2 at 37° C. for 2 hours.
Prepare fresh HNTG* sufficient for 100 ul per well; place on ice.
After 2 hour incubation with test compound, add prepared EGF ligand to cells, 50 ul per well, for a final concentration of 50 nM. Positive control wells receive the same amount of EGF. […] Incubate at 37° C. for 10 min.
Remove test compound, EGF, and DMEM. Wash cells once with PBS.
Transfer HNTG* to cells, 100 ul per well. Place on ice for 5 minutes. Meanwhile, remove blocking buffer from ELISA plate and wash.
Scrape cells from plate with a micropipettor and homogenize cell material by repeatedly aspirating and dispensing the HNTG* lysis buffer. Transfer lysate to a coated, blocked, washed ELISA plate. Or, use a Costar transfer cartridge to transfer lysate to the plate.
Incubate, with shaking, at room temperature for 1 hr.
Remove lysate, wash. Transfer freshly diluted anti-Ptyr antibody (1:3000 in TBST) to ELISA plate, 100 ul per well.
Incubate, with shaking, at room temperature, for 30 min.
Remove anti-Ptyr antibody, wash. Transfer freshly diluted BIOSOURCE antibody to ELISA plate (1:8000 in TBST, 100 ul per well).
Incubate, with shaking, at room temperature for 30 min.
Remove BIOSOURCE antibody, wash. Transfer freshly prepared ABTS/H2O2 solution to ELISA plate, 100 ul per well.
Stop reaction with the addition of 100 ul of 0.2M HCl per well.

EGFR [2] = molecular target: T3, EGFR; assay: EGFR bioassay (bio EGF); type: biochemical
Experimental: This assay is used to the in vitro kinase activity of FGF1-R in an ELISA assay.
1. Corning 96-well Elisa plates.
2. SUMO1 monoclonal anti-EGFR antibody (SUGEN, Inc.).
5. Blocking Buffer: for 100 ml, mix 5.0 g Carnation Instant Non-fat Milk® with 100 ml of PBS.
6. A431 cell lysate (SUGEN, Inc.).
9. […] This reagent should be made up immediately prior to use and kept on ice.
11. […] Prepare just prior to use, keep on ice.
12. NUNC 96-well V bottom polypropylene plates.
14. Rabbit polyclonal anti-phosphotyrosine serum (SUGEN, Inc.).
15. Goat anti-rabbit IgG peroxidase conjugate (Biosource Cat. No. ALI0404).
17. 30% Hydrogen peroxide.
1. Coat Corning 96 well ELISA plates with 0.5 μg SUMO1 in 100 μl PBS per well, store overnight at 4° C.
2. Remove unbound SUMO1 from wells by inverting plate to remove liquid. Wash 1×with dH2O. Pat the plate on a paper towel to remove excess liquid.
3. Add 150 μl of Blocking Buffer to each well. Incubate, with shaking, for 30 min. at room temperature.
4. Wash plate 3×with deionized water, then once with TBST. Pat plate on a paper towel to remove excess liquid and bubbles.
5. Dilute lysate in PBS (7 μg lysate/100 μl PBS).
6. Add 100 μl of diluted lysate to each well. Shake at room temperature for 1 hr.
7. Wash plates as in 4, above.
8. Add 120 μl TBS to ELISA plate containing captured EGFR.
10. Add 13.5 μl diluted test compound to ELISA plate. To control wells, add 13.5 μl TBS in 10% DMSO.
11. Incubate, with shaking, for 30 minutes at room temperature.
12. Add 15 μl phosphorylation mix to all wells except negative control well. Final well volume should be approximately 150 μl with 3 μM ATP/5 mM MnCl2 final concentration in each well. Incubate with shaking for 5 minutes.
13. Stop reaction by adding 16.5 μl of EDTA solution while shaking. Shake for additional 1 min.
14. Wash 4×with deionized water, 2×with TBST.
15. Add 100 μl anti-phosphotyrosine (1:3000 dilution in TBST) per well. Incubate, with shaking, for 30-45 min. at room temperature.
17. […] Incubate with shaking for 30 min. at room temperature.
19. Add 100 μl of ABTS/H2O2 solution to each well.
20. Incubate 5 to 10 minutes with shaking. Remove any bubbles.
21. If necessary, stop reaction by adding 100 μl 0.2 M HCl per well.

T1 sequence (P35918 784-1345 limits assumed): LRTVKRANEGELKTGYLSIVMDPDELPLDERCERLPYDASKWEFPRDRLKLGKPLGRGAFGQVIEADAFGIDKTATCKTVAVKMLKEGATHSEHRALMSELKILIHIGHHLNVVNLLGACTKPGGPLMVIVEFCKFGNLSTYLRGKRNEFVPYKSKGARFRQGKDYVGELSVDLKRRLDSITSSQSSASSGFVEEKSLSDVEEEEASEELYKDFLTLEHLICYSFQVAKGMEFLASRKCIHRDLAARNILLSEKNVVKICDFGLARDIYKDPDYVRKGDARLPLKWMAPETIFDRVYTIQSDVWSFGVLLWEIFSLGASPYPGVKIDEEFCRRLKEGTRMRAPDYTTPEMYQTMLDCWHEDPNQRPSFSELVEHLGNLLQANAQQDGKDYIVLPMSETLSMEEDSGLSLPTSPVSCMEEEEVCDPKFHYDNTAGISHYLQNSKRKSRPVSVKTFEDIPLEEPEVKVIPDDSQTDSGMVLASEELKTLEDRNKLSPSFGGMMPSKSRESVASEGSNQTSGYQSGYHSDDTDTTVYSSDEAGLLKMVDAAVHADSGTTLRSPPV
T2 sequence (P09619 33-1106): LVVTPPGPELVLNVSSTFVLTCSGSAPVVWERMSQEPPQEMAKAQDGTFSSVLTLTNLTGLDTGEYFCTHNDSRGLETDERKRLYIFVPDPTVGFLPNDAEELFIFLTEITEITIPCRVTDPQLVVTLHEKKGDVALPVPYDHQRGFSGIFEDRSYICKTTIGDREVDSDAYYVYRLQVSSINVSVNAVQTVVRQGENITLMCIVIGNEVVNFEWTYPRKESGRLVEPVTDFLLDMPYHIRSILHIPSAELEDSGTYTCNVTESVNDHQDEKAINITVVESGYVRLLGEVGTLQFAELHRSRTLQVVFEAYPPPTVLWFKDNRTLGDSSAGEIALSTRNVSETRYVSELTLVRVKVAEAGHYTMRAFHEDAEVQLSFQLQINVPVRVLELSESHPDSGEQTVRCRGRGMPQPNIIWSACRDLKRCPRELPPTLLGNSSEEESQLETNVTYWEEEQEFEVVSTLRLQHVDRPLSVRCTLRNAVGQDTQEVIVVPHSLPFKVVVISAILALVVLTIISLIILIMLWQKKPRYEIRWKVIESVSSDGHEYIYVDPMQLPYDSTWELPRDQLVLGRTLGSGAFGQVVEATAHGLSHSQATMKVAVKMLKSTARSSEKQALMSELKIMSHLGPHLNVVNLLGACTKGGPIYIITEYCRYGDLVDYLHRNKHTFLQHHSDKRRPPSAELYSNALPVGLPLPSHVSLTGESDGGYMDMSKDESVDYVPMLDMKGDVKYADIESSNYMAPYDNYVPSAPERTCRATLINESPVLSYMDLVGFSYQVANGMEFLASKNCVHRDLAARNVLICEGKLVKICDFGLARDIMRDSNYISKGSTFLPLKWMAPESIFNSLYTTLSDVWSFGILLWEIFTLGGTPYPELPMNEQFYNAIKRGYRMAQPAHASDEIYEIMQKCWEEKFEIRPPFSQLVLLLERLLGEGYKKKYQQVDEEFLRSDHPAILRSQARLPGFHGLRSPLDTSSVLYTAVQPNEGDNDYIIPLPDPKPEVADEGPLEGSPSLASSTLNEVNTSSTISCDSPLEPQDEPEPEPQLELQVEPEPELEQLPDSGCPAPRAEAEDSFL
T4 sequence (P04626 720-987 limits assumed): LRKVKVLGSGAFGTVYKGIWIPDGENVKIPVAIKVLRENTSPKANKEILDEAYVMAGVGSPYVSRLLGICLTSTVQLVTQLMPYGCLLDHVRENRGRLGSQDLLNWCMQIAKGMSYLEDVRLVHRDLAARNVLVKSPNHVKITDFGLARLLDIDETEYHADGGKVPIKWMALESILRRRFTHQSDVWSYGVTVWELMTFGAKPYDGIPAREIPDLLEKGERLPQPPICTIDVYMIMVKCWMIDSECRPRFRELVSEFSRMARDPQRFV
T3 sequence (P00533 25-1210): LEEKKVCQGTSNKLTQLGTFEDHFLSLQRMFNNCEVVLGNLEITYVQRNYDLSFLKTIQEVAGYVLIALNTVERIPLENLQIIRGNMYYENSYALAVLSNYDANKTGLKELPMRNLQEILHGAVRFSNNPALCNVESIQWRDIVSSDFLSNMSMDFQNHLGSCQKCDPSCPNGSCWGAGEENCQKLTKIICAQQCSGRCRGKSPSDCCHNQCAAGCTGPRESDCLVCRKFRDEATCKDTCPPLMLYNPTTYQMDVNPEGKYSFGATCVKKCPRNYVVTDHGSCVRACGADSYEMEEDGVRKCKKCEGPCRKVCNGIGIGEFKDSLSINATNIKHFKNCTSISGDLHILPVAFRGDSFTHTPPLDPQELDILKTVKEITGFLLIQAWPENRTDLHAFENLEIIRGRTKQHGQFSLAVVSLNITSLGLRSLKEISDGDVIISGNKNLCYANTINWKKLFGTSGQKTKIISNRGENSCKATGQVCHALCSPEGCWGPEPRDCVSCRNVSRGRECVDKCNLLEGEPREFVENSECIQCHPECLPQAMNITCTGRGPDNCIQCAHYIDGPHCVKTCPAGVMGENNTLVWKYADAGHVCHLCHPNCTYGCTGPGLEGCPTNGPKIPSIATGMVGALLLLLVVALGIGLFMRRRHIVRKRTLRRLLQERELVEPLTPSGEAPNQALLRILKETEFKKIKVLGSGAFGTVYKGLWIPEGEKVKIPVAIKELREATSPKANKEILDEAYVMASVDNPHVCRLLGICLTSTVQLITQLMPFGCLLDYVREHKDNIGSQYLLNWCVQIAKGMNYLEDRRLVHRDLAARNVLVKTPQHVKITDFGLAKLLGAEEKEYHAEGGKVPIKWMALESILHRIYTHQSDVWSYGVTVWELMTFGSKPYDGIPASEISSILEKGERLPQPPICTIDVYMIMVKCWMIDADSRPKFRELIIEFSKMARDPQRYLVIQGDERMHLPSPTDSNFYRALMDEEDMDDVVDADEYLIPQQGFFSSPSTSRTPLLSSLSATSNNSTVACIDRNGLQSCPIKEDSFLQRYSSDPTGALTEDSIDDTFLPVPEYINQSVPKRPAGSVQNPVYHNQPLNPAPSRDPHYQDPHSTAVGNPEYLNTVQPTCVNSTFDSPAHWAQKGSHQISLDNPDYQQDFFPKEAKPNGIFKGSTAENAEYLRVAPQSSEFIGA

SMILES	IC50 (GST-Flk1) [µM]	IC50 (PDGFR-β) [µM]	IC50 (EGFR [1]) [µM]	IC50 (HER-2 kinase) [µM]	IC50 (EGFR [2]) [µM]
CCN(CC)CCN(C)C(=O)c1ccc(/C=C2\C(=O)Nc3ccc(Br)cc32)[nH]1 [Example 10, 5-(5-Bromo-2-oxo-1,2-dihydroindol-3-ylidenemethyl)-1H-pyrrole-2-carboxylic acid (2-diethylaminoethyl)methylamide]	5.72	> 100	15.9	8.06	94
CC(C)c1[nH]c(/C=C2\C(=O)Nc3ccc(Br)cc32)c(-c2ccccc2)c1C(=O)NCCCN1CCCC1 [Example 38, 5-(5-Bromo-2-oxo-1,2-dihydroindol-3-ylidenemethyl)-2-isopropyl-4-phenyl-1H-pyrrole-3-carboxylic acid (3-pyrrolidin-1-ylpropyl)amide]	4.17	3.06	8.97	2.16	6.04
CN(C)CCNC(=O)c1[nH]c(/C=C2\C(=O)Nc3ccc(Br)cc32)c2c1CCCC2 [Example 89, 3-(5-Bromo-2-oxo-1,2-dihydro-indol-3-ylidenemethyl)-4,5,6,7-tetrahydro-2H-isoindole-1-carboxylic acid (2-dimethylamino-ethyl)-amide]	7.84	47.6	9.67	16	8.53
CCN(CC)CCCNC(=O)c1c(C(C)C)[nH]c(/C=C2\C(=O)Nc3ccc(Br)cc32)c1C(C)C [Example 72, 5-(5-Bromo-2-oxo-1,2-dihydroindol-3-ylidenemethyl)-2,4-diisopropyl-1H-pyrrole-3-carboxylic acid (3-diethylaminopropyl)amide]	6.06	10.5	39.9	9.65	> 100
Cc1[nH]c(/C=C2\C(=O)Nc3ccc(Br)cc32)c(-c2ccccc2)c1C(=O)NCCN(C)C [Example 44, 5-(5-Bromo-2-oxo-1,2-dihydroindol-3-ylidenemethyl)-2-methyl-4-phenyl-1H-pyrrole-3-carboxylic acid (2-dimethylamino-ethyl)amide]	< 0.05	0.02	67.5	6.99	20.7
CCOC(=O)c1c(C)[nH]c(/C=C2\C(=O)Nc3ccc(Br)cc32)c1-c1ccccc1 [Example 46, 5-(5-Bromo-2-oxo-1,2-dihydroindol-3-ylidenemethyl)-2-methyl-4-phenyl-1H-pyrrole-3-carboxylic acid ethyl ester]	30.6	6.18	> 100	> 100	> 100
Cc1[nH]c(/C=C2\C(=O)Nc3cc(-c4cccnc4)ccc32)c(C)c1C(=O)NCCN1CCCC1 [Example 64, 2,4-Dimethyl-5-(2-oxo-6-pyridin-3-yl-1,2-dihydroindol-3-ylidenemethyl)-1H-pyrrole-3-carboxylic acid (2-pyrrolidin-1-yl-ethyl)amide]	0.55	< 0.78	> 100	> 100	30.5
CCN(CC)CCNC(=O)c1c(C(C)C)[nH]c(/C=C2\C(=O)Nc3ccc(Br)cc32)c1-c1ccccc1 [Example 39, 5-(5-Bromo-2-oxo-1,2-dihydroindol-3-ylidenemethyl)-2-isopropyl-4-phenyl-1H-pyrrole-3-carboxylic acid (2-diethylaminoethyl)amide]	3.38	4.69	14.5	3.53	3.67
CCN(CC)CCNC(=O)c1c(C)[nH]c(/C=C2\C(=O)Nc3ccc(-c4ccccc4)cc32)c1C [Example 56, 2,4-Dimethyl-5-(2-oxo-5-phenyl-1,2-dihydroindol-3-ylidenemethyl)-1H-pyrrole-3-carboxylic acid (2-diethylaminoethyl)amide]	2.32	3.19	10	7.11	> 100
CCN(CC)CCCNC(=O)c1c(C(C)C)[nH]c(/C=C2\C(=O)Nc3ccc(Br)cc32)c1-c1ccccc1 [Example 37, 5-(5-Bromo-2-oxo-1,2-dihydroindol-3-ylidenemethyl)-2-isopropyl-4-phenyl-1H-pyrrole-3-carboxylic acid (3-diethylaminopropyl)amide]	0.22	3.06	9.84	1.4	10.8
CCN(CC)CCCNC(=O)c1cc(C)c(/C=C2\C(=O)Nc3ccc(Br)cc32)[nH]1 [Example 7, 5-(5-Bromo-2-oxo-1,2-dihydroindol-3-ylidenemethyl)-4-methyl-1H-pyrrole-2-carboxylic acid (3-diethylaminopropyl)amide]	7.74	> 100	9.8	4.24	5.07
CCN(CC)CCNC(=O)c1ccc(/C=C2\C(=O)Nc3ccc(Br)cc32)[nH]1 [Example 8, 5-(5-Bromo-2-oxo-1,2-dihydroindol-3-ylidenemethyl)-1H-pyrrole-2-carboxylic acid (2-diethylaminoethyl)amide]	12.1	> 100	20.1	5.5	51.3
Cc1[nH]c(/C=C2\C(=O)Nc3ccc(-c4ccccc4)cc32)c(C)c1C(=O)NCCN1CCCC1 [Example 57, 2,4-Dimethyl-5-(2-oxo-5-phenyl-1,2-dihydroindol-3-ylidenemethyl)-1H-pyrrole-3-carboxylic acid (2-pyrrolidin-1-yl-ethyl)amide]	0.06	7.98	9.97	6.94	> 100
CCN(CC)CCCNC(=O)c1c(C)[nH]c(/C=C2\C(=O)Nc3ccc(-c4ccccc4)cc32)c1C [Example 67, 2,4-Dimethyl-5-(2-oxo-5-phenyl-1,2-dihydroindol-3-ylidenemethyl)-1H-pyrrole-3-carboxylic acid (3-diethylaminopropyl)amide]	0.39	24.8	19.8	2.56	31.4
COc1ccccc1-c1ccc2c(c1)NC(=O)/C2=C\c1[nH]c(C)c(C(=O)NCCN2CCCC2)c1-c1ccccc1 [Example 43, 5-[6-(2-Methoxy-phenyl)-2-oxo-1,2-dihydroindol-3-ylidenemethyl]-2-methyl-4-phenyl-1H-pyrrole-3-carboxylic acid (2-pyrrolidin-1-yl-ethyl)amide]	1.12	8.38	37.3	53.4	
CCN(CC)CCN(C)C(=O)c1ccc(/C=C2\C(=O)Nc3cc(-c4ccccc4)ccc32)[nH]1 [Example 11, 5-(2-Oxo-6-phenyl-1,2-dihydroindol-3-ylidenemethyl)-1H-pyrrole-2-carboxylic acid (2-diethylaminoethyl)methylamide]	9.77	> 100	> 100	> 100	> 100
Cc1[nH]c(/C=C2\C(=O)Nc3ccc(Br)cc32)c(-c2ccccc2)c1C(=O)NCCN1CCCC1 [Example 42, 5-(5-Bromo-2-oxo-1,2-dihydroindol-3-ylidenemethyl)-2-methyl-4-phenyl-1H-pyrrole-3-carboxylic acid (2-pyrrolidin-1-yl-ethyl)amide]	0.1	0.12	74.6	20.4	12
CC(C)c1[nH]c(/C=C2\C(=O)Nc3ccc(Br)cc32)c(C(C)C)c1C(=O)NCCCN1CCCC1 [Example 73, 5-(5-Bromo-2-oxo-1,2-dihydroindol-3-ylidenemethyl)-2,4-diisopropyl-1H-pyrrole-3-carboxylic acid (3-pyrrolidin-1-ylpropyl)amide]	5.95	14.1	39.5	8.59	> 100
CCN(CC)CCNC(=O)c1ccc(/C=C2\C(=O)Nc3cc(-c4ccccc4)ccc32)[nH]1 [Example 9, 5-(2-Oxo-6-phenyl-1,2-dihydroindol-3-ylidenemethyl)-1H-pyrrole-2-carboxylic acid (2-diethylaminoethyl)amide]	0.96	> 100	> 100	16.4	> 100
COc1cccc(-c2ccc3c(c2)NC(=O)/C3=C\c2[nH]c(C)c(C(=O)NCCN(C)C)c2C)c1 [Example 55, 5-[6-(3-Methoxy-phenyl)-2-oxo-1,2-dihydroindol-3-ylidenemethyl]-2,4-dimethyl-1H-pyrrole-3-carboxylic acid (2-dimethylamino-ethyl)amide]	0.27	0.53	36	77.8	6.03
Cc1[nH]c(/C=C2\C(=O)Nc3cc(-c4cccnc4)ccc32)c(C)c1C(=O)NCCCN(C)C [Example 65, 2,4-Dimethyl-5-(2-oxo-6-pyridin-3-yl-1,2-dihydroindol-3-ylidenemethyl)-1H-pyrrole-3-carboxylic acid (3-dimethylamino-propyl)amide]	0.37	< 0.05	74.4	16	> 100
